From PubChem BioAssay AID330 (DTP/NCI, 2004)
Where “and” joins values, the source holds several entries; their conditions need not be identical. Equal entries are not always repeated. Toxic doses and inconclusive results are not listed. How the source made its calls: active means survival T/C of 150% or more; inactive means T/C below 125% in these data. Peptide text beside a SMILES is read from it.

Tested on: P388 leukemia ip, CD2F1 mice, survival T/C
Assay: NCI In Vivo Anticancer Drug Screen. Data for tumor model P388 Leukemia (intraperitoneal) in CD2F1 (CDF1) mice
Conditions: endpoint: median survival time, higher = longer survival
Method in brief: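 Mice carrying the transplanted tumor received test compound or vehicle. Survival was recorded in each group, and the value is the treated-group measurement divided by that of the vehicle-treated control group.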

[1] = dose: 50.0 mg/kg/injection, schedule: Q01DX005 (ip), vehicle: saline with Tween-80
[2] = dose: 100.0 mg/kg/injection, schedule: Q01DX005 (ip), vehicle: saline with Tween-80
[3] = dose: 200.0 mg/kg/injection, schedule: Q01DX005 (ip), vehicle: saline with Tween-80
[4] = dose: 100.0 mg/kg/injection, schedule: Q01DX001 (ip), vehicle: saline with Tween-80
[5] = dose: 100.0 mg/kg/injection, schedule: Q01DX009 (ip), vehicle: other
[6] = dose: 200.0 mg/kg/injection, schedule: Q01DX009 (ip), vehicle: other
[7] = dose: 400.0 mg/kg/injection, schedule: Q01DX009 (ip), vehicle: other
[8] = dose: 50.0 mg/kg/injection, schedule: Q01DX009 (ip), vehicle: saline with Tween-80
[9] = dose: 100.0 mg/kg/injection, schedule: Q01DX009 (ip), vehicle: saline with Tween-80
[10] = dose: 200.0 mg/kg/injection, schedule: Q01DX009 (ip), vehicle: saline with Tween-80
[11] = dose: 100.0 mg/kg/injection, schedule: Q04DX003 (ip), vehicle: Klucel (hydroxypropylcellulose) (HPC)
[12] = dose: 50.0 mg/kg/injection, schedule: Q01DX005 (ip), vehicle: Klucel (hydroxypropylcellulose) (HPC)
[13] = dose: 100.0 mg/kg/injection, schedule: Q01DX005 (ip), vehicle: Klucel (hydroxypropylcellulose) (HPC)
[14] = dose: 200.0 mg/kg/injection, schedule: Q01DX005 (ip), vehicle: Klucel (hydroxypropylcellulose) (HPC)
[15] = dose: 50.0 mg/kg/injection, schedule: Q01DX009 (ip), vehicle: Klucel (hydroxypropylcellulose) (HPC)
[16] = dose: 100.0 mg/kg/injection, schedule: Q01DX009 (ip), vehicle: Klucel (hydroxypropylcellulose) (HPC)
[17] = dose: 200.0 mg/kg/injection, schedule: Q01DX009 (ip), vehicle: Klucel (hydroxypropylcellulose) (HPC)
[18] = dose: 60.0 mg/kg/injection, schedule: Q01DX005 (ip), vehicle: Klucel (hydroxypropylcellulose) (HPC)
[19] = dose: 120.0 mg/kg/injection, schedule: Q01DX005 (ip), vehicle: Klucel (hydroxypropylcellulose) (HPC)
[20] = dose: 240.0 mg/kg/injection, schedule: Q01DX005 (ip), vehicle: Klucel (hydroxypropylcellulose) (HPC)
[21] = dose: 60.0 mg/kg/injection, schedule: Q01DX005 (ip), vehicle: saline
[22] = dose: 120.0 mg/kg/injection, schedule: Q01DX005 (ip), vehicle: saline
[23] = dose: 240.0 mg/kg/injection, schedule: Q01DX005 (ip), vehicle: saline

Measured: T/C

CC(C)(C)P(c1ccccc1)C(C)(C)C
inactive: dose: 100.0 mg/kg/injection, schedule: Q04DX002 (ip), vehicle: saline with Tween-80 103 % of control

CCN(CC)CCCC(C)Nc1c(C)cnc2cc(Cl)ccc12 (stereo unspecified)
inactive: dose: 50.0 mg/kg/injection, schedule: Q01DX005 (ip), vehicle: saline 98 % of control | dose: 100.0 mg/kg/injection, schedule: Q01DX005 (ip), vehicle: saline 108 % of control

C/C(=C1/N=C(c2ccccc2)OC1=O)c1ccccc1
inactive: [1] 98 % of control | [2] 96 % of control | [3] 98 % of control

C=C1[C@@H](NC)CC[C@]23C[C@]24CC[C@]2(C)[C@@H]([C@H](C)NC)[C@H](O)C[C@@]2(C)[C@@H]4CC[C@@H]13
inactive: dose: 25.0 mg/kg/injection, schedule: Q01DX001 (ip), vehicle: saline with Tween-80 104 % of control | dose: 50.0 mg/kg/injection, schedule: Q01DX001 (ip), vehicle: saline with Tween-80 99 % of control | [4] 104 % of control

COc1ccc2c(c1O)-c1cc(O)cc3c1C(C2)NCC3 (stereo unspecified)
inactive: dose: 0.32 mg/kg/injection, schedule: Q04DX003 (ip), vehicle: DMSO 98 % of control | dose: 0.63 mg/kg/injection, schedule: Q04DX003 (ip), vehicle: DMSO 95 % of control | dose: 1.25 mg/kg/injection, schedule: Q04DX003 (ip), vehicle: DMSO 99 % of control | dose: 2.5 mg/kg/injection, schedule: Q04DX003 (ip), vehicle: DMSO 98 % of control | dose: 5.0 mg/kg/injection, schedule: Q04DX003 (ip), vehicle: DMSO 100 % of control

O=C(COc1ccc([N+](=O)[O-])cc1)Nc1cccnc1
inactive: dose: 50.0 mg/kg/injection, schedule: Q04DX003 (ip), vehicle: saline with Tween-80 98 % of control | dose: 100.0 mg/kg/injection, schedule: Q04DX003 (ip), vehicle: saline with Tween-80 98 % of control | dose: 200.0 mg/kg/injection, schedule: Q04DX003 (ip), vehicle: saline with Tween-80 99 % of control

Cc1ccc(N/N=C/C(=O)O)cc1
inactive: dose: 12.5 mg/kg/injection, schedule: Q01DX009 (ip), vehicle: other 113 % of control | dose: 25.0 mg/kg/injection, schedule: Q01DX009 (ip), vehicle: other 103 % of control | dose: 50.0 mg/kg/injection, schedule: Q01DX009 (ip), vehicle: other 112 % of control | [5] 98 % of control | [6] 116 % of control | [7] 116 % of control

Cc1ccn2ncnc2c1
inactive: [8] 101 % of control | [9] 102 % of control | [10] 91 % of control

CC(=O)O[C@H]1[C@@H]2c3c(ccc4c(=O)cc(-c5ccccc5)oc34)O[C@@H]2OC1(C)C
inactive: dose: 0.98 mg/kg/injection, schedule: Q01DX005 (ip), vehicle: Klucel (hydroxypropylcellulose) (HPC) 100 % of control | dose: 1.95 mg/kg/injection, schedule: Q01DX005 (ip), vehicle: Klucel (hydroxypropylcellulose) (HPC) 98 % of control | dose: 3.9 mg/kg/injection, schedule: Q01DX005 (ip), vehicle: Klucel (hydroxypropylcellulose) (HPC) 86 % of control

Cc1ccc(S(=O)(=O)N/N=C/C(C)c2cccnc2)cc1 (stereo unspecified)
inactive: [8] 105 % of control | [9] 99 % of control | [10] 107 % of control

CNC1CCCc2c(O)cccc21 (stereo unspecified)
inactive: dose: 50.0 mg/kg/injection, schedule: Q04DX003 (ip), vehicle: Klucel (hydroxypropylcellulose) (HPC) 99 % of control | [11] 101 % of control

CCOCC(=O)NC1Cc2cc(OC)c(OC)cc2C1O (stereo unspecified)
inactive: dose: 60.0 mg/kg/injection, schedule: Q01DX005 (ip), vehicle: saline with Tween-80 100 % of control | dose: 120.0 mg/kg/injection, schedule: Q01DX005 (ip), vehicle: saline with Tween-80 101 % of control | dose: 240.0 mg/kg/injection, schedule: Q01DX005 (ip), vehicle: saline with Tween-80 100 % of control

CC(=O)NC(C(=O)O)C(C)(C)S (stereo unspecified)
inactive: [12] 100 % of control | [13] 100 % of control | [14] 95 % of control

COc1cccc2c1c(=O)c1cc([N+](=O)[O-])ccc1n2C
inactive: [4] 100 % of control | dose: 200.0 mg/kg/injection, schedule: Q01DX001 (ip), vehicle: saline with Tween-80 97 % of control | dose: 400.0 mg/kg/injection, schedule: Q01DX001 (ip), vehicle: saline with Tween-80 86 % of control

CN1CC=Nc2c1nc(N)[nH]c2=O
inactive: [8] 98 % of control | [9] 95 % of control

CC1(C)CCSC(/C=C/c2ccccc2)=N1
inactive: [5] 109 % of control | [6] 115 % of control | [7] 108 % of control

Cc1nnc(Cc2ccco2)c2n[nH]c(C)c12
inactive: [15] 96 % of control | [16] 99 % of control | [17] 100 % of control

CC(=O)N1CCC23c4ccccc4N(C)C2CC(=O)CC13 (stereo unspecified)
inactive: dose: 8.75 mg/kg/injection, schedule: Q01DX005 (ip), vehicle: Klucel (hydroxypropylcellulose) (HPC) 97 % of control | dose: 17.5 mg/kg/injection, schedule: Q01DX005 (ip), vehicle: Klucel (hydroxypropylcellulose) (HPC) 98 % of control | dose: 35.0 mg/kg/injection, schedule: Q01DX005 (ip), vehicle: Klucel (hydroxypropylcellulose) (HPC) 103 % of control

O=C1CSC(c2ccccc2O)N1c1nncs1 (stereo unspecified)
inactive: [1] 94 % of control | [2] 93 % of control | [3] 93 % of control

O=C1/C(=C/c2ccc(O)c(O)c2)Cc2ccccc21
inactive: dose: 25.0 mg/kg/injection, schedule: Q01DX009 (ip), vehicle: saline with Tween-80 102 % of control | [8] 103 % of control | [9] 105 % of control | [10] 103 % of control

CCOC(=O)C1=C(C(=O)C(C)(C)C)C(c2ccc([N+](=O)[O-])cc2)C(C(=O)C(C)(C)C)=C(C(=O)OCC)N1
inactive: [18] 103 % of control | [19] 94 % of control | [20] 103 % of control

C/C=N/NCCC#N
inactive: dose: 6.25 mg/kg/injection, schedule: Q01DX005 (ip), vehicle: saline 100 % of control | dose: 12.5 mg/kg/injection, schedule: Q01DX005 (ip), vehicle: saline 100 % of control | dose: 25.0 mg/kg/injection, schedule: Q01DX005 (ip), vehicle: saline 90 % of control

COc1cc2c(cc1OC)C(c1cccc(Cl)c1)=NN=C(C)C2
inactive: [18] 105 % of control | [19] 101 % of control | [20] 96 % of control

CCC(C)C(NC(=O)C(N)CC(C)C)C(=O)O (stereo not drawn) (H-Leu-Ile-OH; configuration not given here)
inactive: [21] 108 % of control | [22] 108 % of control | [23] 104 % of control

C=CC(/C=C\c1ccc(OC2OC(CO)C(O)C(O)C2O)cc1)c1ccc(OC2OC(CO)C(O)C(O)C2O)cc1 (stereo unspecified)
inactive: [21] 97 % of control | [22] 103 % of control | [23] 92 % of control

N#CCCN(N)S(=O)(=O)c1ccc(Cl)cc1
inactive: [12] 97 % of control | [13] 99 % of control | [14] 96 % of control

CCCC1C=C(c2ccccc2)N=C(c2ccccc2)S1 (stereo unspecified)
inactive: [8] 98 % of control | [9] 101 % of control | [10] 90 % of control

CC1(c2ccccc2)c2ccccc2N(c2ccccc2)C(=O)C1O (stereo unspecified)
inactive: [11] 101 % of control and 109 % of control | dose: 200.0 mg/kg/injection, schedule: Q04DX003 (ip), vehicle: Klucel (hydroxypropylcellulose) (HPC) 100 % of control and 107 % of control | dose: 400.0 mg/kg/injection, schedule: Q04DX003 (ip), vehicle: Klucel (hydroxypropylcellulose) (HPC) 100 % of control and 109 % of control

CC(C)(NC(=O)c1cc(Cl)c2ccccc2c1O)C(=O)O
inactive: dose: 50.0 mg/kg/injection, schedule: Q01DX009 (ip), vehicle: saline + alcohol 97 % of control | dose: 100.0 mg/kg/injection, schedule: Q01DX009 (ip), vehicle: saline + alcohol 94 % of control | dose: 200.0 mg/kg/injection, schedule: Q01DX009 (ip), vehicle: saline + alcohol 103 % of control

Cc1csc(N=Nc2ccc(N(C)C)cc2)[n+]1[O-]
inactive: [15] 103 % of control | [16] 109 % of control | [17] 108 % of control
